From US8461209B2, “Malonic acid sulfonamide derivative and pharmaceutical use thereof” (Mitsubishi Tanabe Pharma Corporation, priority 2007, dated 2013) come the findings set out here.

This experiment has as its target T1, human recombinant AT2 receptor (Homo sapiens, UniProt P50052).
T1 construct: purchased PerkinElmer 6110538; host or cells: HeLa cells
T1 sequence (P50052 1-363): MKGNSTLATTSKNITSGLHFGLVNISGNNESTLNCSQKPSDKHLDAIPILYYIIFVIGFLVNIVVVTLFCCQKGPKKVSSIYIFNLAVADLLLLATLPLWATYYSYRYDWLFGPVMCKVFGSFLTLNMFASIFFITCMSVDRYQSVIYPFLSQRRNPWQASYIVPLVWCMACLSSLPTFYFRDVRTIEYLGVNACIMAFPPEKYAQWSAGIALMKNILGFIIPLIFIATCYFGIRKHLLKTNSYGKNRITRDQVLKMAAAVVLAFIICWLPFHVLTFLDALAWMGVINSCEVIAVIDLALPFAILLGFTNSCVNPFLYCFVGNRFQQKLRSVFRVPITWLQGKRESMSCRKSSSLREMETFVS
Description: Affinity for AT2 receptor (receptor binding assay). The following applies: membrane fraction from HeLa cells expressing human recombinant AT2 receptor; 125I-[Sar1, Ile8]-Ang II 0.1 nmol/L. As for the experimental part: Using a commercially available receptor membrane fraction (PerkinElmer, Cat No. 6110538) obtained from HeLa cells expressing human recombinant AT2 receptor, a receptor binding assay was performed. ^125I-[Sar^1, Ile^8]-Ang II (0.8 kBq, final concentration 0.1 nmol/L) and various concentrations of the compound of the present invention were added to a solution of 50 mmol/L Tris-HCl (pH 7.4), 125 mmol/L NaCl, 6.5 mmol/L MgCl2 and 1 mmol/L EDTA containing the receptor membrane fraction, and the mixture was incubated at room temperature for 90 min. Bound or free ^125I-[Sar^1, Ile^8]-Ang II was separated with a glass fiber filter (Millipore, MultiScreen FB Plate), and the radioactivity of ^125I-[Sar^1, Ile^8]-Ang II bound to the receptor was determined. […] On the other hand, Kd value of ^125I-[Sar^i, Ile^8]-Ang II for AT2 receptor in the absence of the compound of the present invention was determined by Scatchard analysis. Using the IC50 value obtained from the concentration-response curve and the Kd value of ^125I-[Sar^1, Ile^8]-Ang II, the Ki value of the compound of the present invention was calculated and used as an index of the affinity for AT2 receptor.

In general, Ki refers to the dissociation constant of the complex between target and ligand, obtained from inhibition or displacement.

Structures are written as SMILES.

Take `CC(C)CC(C(=O)NS(=O)(=O)/C=C/c1ccccc1)C(=O)N(c1ccc(F)cc1)C(C)C` (stereo not shown) [Example 491, N-(4-fluorophenyl)-2-isobutyl-N-isopropyl-N′-((E)-styrylsulfonyl)malonamide]: the Ki is 9.2 nM.

On to `CC(C)CC(C(=O)NS(=O)(=O)CCc1ccccc1)C(=O)N(c1ccc(F)cc1)C(C)C` (stereo not shown) [Example 493, N-(4-fluorophenyl)-2-isobutyl-N-isopropyl-N′-phenethylsulfonylmalonamide], for which the Ki is 5.2 nM.

Take `CCN(CC)C(=O)C(CCCc1ccc(N)cc1)C(=O)NS(=O)(=O)c1ccc2ccccc2c1` (stereo not shown) [Example 147, 2-[3-(4-aminophenyl)propyl]-N,N-diethyl-N′-(2-naphthylsulfonyl)malonamide]: the Ki worked out at 34 nM.

With `CCN(C(=O)C(CC(=O)N1CCc2ccccc2C1)C(=O)NS(=O)(=O)/C=C/c1ccccc1)c1ccccc1` (stereo not shown) [Example 441, 2-[2-(3,4-dihydroisoquinolin-2(1H)-yl)-2-oxoethyl]-N-ethyl-N-phenyl-N′-((E)-styrylsulfonyl)malonamide], the Ki turned out to be 11 nM.

As for `CCN(CC)C(=O)C(Cc1ccc(NC(=O)Oc2ccccc2)cc1)C(=O)NS(=O)(=O)c1ccc2ccccc2c1` (stereo not shown) [Example 87, N,N-diethyl-N′-(2-naphthylsulfonyl)-2-[4-(phenoxycarbonylamino)benzyl]malonamide], the Ki was found to be 23 nM.

Take `CCN(CC)C(=O)[C@H](Cc1ccc(NC(=O)c2ccccc2N)cc1)C(=O)NS(=O)(=O)c1ccc2ccccc2c1` [Example 104, (2S)-2-{4-[(2-aminobenzoyl)amino]benzyl}-N,N-diethyl-N′-(2-naphthylsulfonyl)malonamide]: the Ki came out at 3.3 nM.

Consider `CC(C)N(C(=O)C(CC1CC1)C(=O)NS(=O)(=O)c1ccc2ccccc2c1)c1ccc(F)cc1` (stereo not shown) [Example 530, 2-cyclopropylmethyl-N-(4-fluorophenyl)-N-isopropyl-N′-(2-naphthylsulfonyl)malonamide], for which the Ki turned out to be 13 nM.

Take `CCN(CC)C(=O)[C@H](Cc1ccc(NC(=O)c2cc(F)ccc2N)cc1)C(=O)NS(=O)(=O)c1ccc2ccccc2c1` [Example 99, (2S)-2-{4-[(2-amino-5-fluorobenzoyl)amino]benzyl}-N,N-diethyl-N′-(2-naphthylsulfonyl)malonamide]: the Ki amounted to 0.9 nM.

As for `CCN(CC)C(=O)[C@H](Cc1ccc(NC(=O)c2cc(C)ccc2N)cc1)C(=O)NS(=O)(=O)c1ccc2ccccc2c1` [Example 108, (2S)-2-{4-[(2-amino-5-methylbenzoyl)amino]benzyl}-N,N-diethyl-N′-(2-naphthylsulfonyl)malonamide], the Ki was 9.7 nM.

Take `CC(C)N(C(=O)C(CC1CC1)C(=O)NS(=O)(=O)CCc1ccccc1)c1ccc(F)cc1` (stereo not shown) [Example 529, 2-cyclopropylmethyl-N-(4-fluorophenyl)-N-isopropyl-N′-phenethylsulfonylmalonamide]: the Ki came to 10 nM.

As to `CCN(CC)C(=O)C(Cc1ccc(NC(=O)c2c(F)cccc2F)cc1)C(=O)NS(=O)(=O)c1ccc2ccccc2c1` (stereo not shown) [Example 22, N,N-diethyl-2-{4-[(2,6-difluorobenzoyl)amino]benzyl}-N′-(2-naphthylsulfonyl)malonamide], the Ki worked out at 8 nM.

For the compound `CCN(CC)C(=O)[C@H](Cc1ccc(NC(=O)c2ccccn2)cc1)C(=O)NS(=O)(=O)c1ccc2ccccc2c1` [Example 101, (2S)—N,N-diethyl-N′-(2-naphthylsulfonyl)-2-{4-[(2-pyridylcarbonyl)amino]benzyl}malonamide], the Ki turned out to be 16 nM.

Take `CCN(C(=O)C(Cc1cnn(Cc2ccccc2)c1)C(=O)NS(=O)(=O)/C=C/c1ccccc1)c1ccccc1` (stereo not shown) [Example 371, 2-[(1-benzyl-1H-pyrazol-4-yl)methyl]-N-ethyl-N-phenyl-N′-((E)-styrylsulfonyl)malonamide]: the Ki was 12 nM.

With `CC(C)N(C(=O)C(CC1CC1)C(=O)NS(=O)(=O)/C=C/c1ccccc1)c1ccc(F)cc1` (single isomer, unassigned) [Example 516, (2S or 2R)-2-cyclopropylmethyl-N-(4-fluorophenyl)-N-isopropyl-N′-((E)-2-styrylsulfonyl)malonamide], the Ki was found to be 6.1 nM.

Consider `CCN(CC)C(=O)[C@H](Cc1ccc(NC(=O)c2ccccc2)cc1)C(=O)NS(=O)(=O)c1ccc2ccccc2c1` [Example 92, (2S)-2-[4-(benzoylamino)benzyl]-N,N-diethyl-N′-(2-naphthylsulfonyl)malonamide], for which the Ki is 2.3 nM.

Take `C=CCC(C(=O)NS(=O)(=O)/C=C/c1ccccc1)C(=O)N(CC)c1cccc(C(F)(F)F)c1` (stereo not shown) [Example 475, 2-allyl-N-ethyl-N′-((E)-styrylsulfonyl)-N-(3-trifluoromethylphenyl)malonamide]: the inhibition constant (Ki) was found to be 13 nM.

With `CCN(CC)C(=O)[C@H](Cc1ccc(NC(=O)c2ccc(Cl)cc2N)cc1)C(=O)NS(=O)(=O)c1ccc2ccccc2c1` [Example 103, (2S)-2-{4-[(2-amino-4-chlorobenzoyl)amino]benzyl}-N,N-diethyl-N′-(2-naphthylsulfonyl)malonamide], the Ki turned out to be 3.2 nM.

Regarding `CCN(CC)C(=O)[C@H](Cc1ccc(NC(=O)c2cc(F)c(F)cc2N)cc1)C(=O)NS(=O)(=O)c1ccc2ccccc2c1` [Example 106, (2S)-2-{4-[(2-amino-4,5-difluorobenzoyl)amino]benzyl}-N,N-diethyl-N′-(2-naphthylsulfonyl)malonamide], the Ki came out at 1.6 nM.

In the case of `CC(C)CC(C(=O)NS(=O)(=O)c1ccc2ccccc2c1)C(=O)N(c1ccc(F)cc1)C(C)C` (stereo not shown) [Example 495, N-(4-fluorophenyl)-2-isobutyl-N-isopropyl-N′-(2-naphthylsulfonyl)malonamide], the Ki was determined as 8.4 nM.

In the case of `CC(C)CC(C(=O)NS(=O)(=O)CCCOc1ccccc1)C(=O)N(c1ccc(F)cc1)C(C)C` (stereo not shown) [Example 496, N-(4-fluorophenyl)-2-isobutyl-N-isopropyl-N′-(3-phenoxypropylsulfonyl)malonamide], the Ki was determined as 12 nM.

As to `C=CCC(C(=O)NS(=O)(=O)/C=C/c1ccccc1)C(=O)N(c1ccc(F)cc1)C(C)C` (stereo not shown) [Example 481, 2-allyl-N-(4-fluorophenyl)-N-isopropyl-N′-((E)-styrylsulfonyl)malonamide], the Ki worked out at 9 nM.

Turning to `CCN(CC)C(=O)[C@H](Cc1ccc(NC(=O)c2cc(Cl)ccc2N)cc1)C(=O)NS(=O)(=O)c1ccc2ccccc2c1` [Example 105, (2S)-2-{4-[(2-amino-5-chlorobenzoyl)amino]benzyl}-N,N-diethyl-N′-(2-naphthylsulfonyl)malonamide], the Ki came to 5.4 nM.

As for `CCN(CC)C(=O)[C@H](Cc1ccc(NC(=O)c2c(N)cccc2F)cc1)C(=O)NS(=O)(=O)c1ccc2ccccc2c1` [Example 100, (2S)-2-{4-[(2-amino-6-fluorobenzoyl)amino]benzyl}-N,N-diethyl-N′-(2-naphthylsulfonyl)malonamide], the Ki came out at 1.8 nM.

For `CCN(CC)C(=O)[C@H](Cc1ccc(NC(=O)c2ccc(F)cc2N)cc1)C(=O)NS(=O)(=O)c1ccc2ccccc2c1` [Example 107, (2S)-2-{4-[(2-amino-4-fluorobenzoyl)amino]benzyl}-N,N-diethyl-N′-(2-naphthylsulfonyl)malonamide], the Ki is 1.6 nM.

For `CC(C)N(C(=O)C(Cc1ccc(F)cc1)C(=O)NS(=O)(=O)/C=C/c1ccccc1)c1cccnc1` (stereo not shown) [Example 322, 2-(4-fluorobenzyl)-N-isopropyl-N-(3-pyridyl)-N′-((E)-styrylsulfonyl)malonamide], the Ki worked out at 6.4 nM.
